Columns and labels:
Vero E6 cells = experiment: Cytotoxicity assay; format: cell-based, African green monkey; details: 72 h, CCK-8 assay
PEDV [1] = experiment: Anti-PEDV activity assay, PEDV-induced cytopathic effect; format: cell-based; details: Vero E6 cells, PEDV 0.01 MOI, until virus control showed complete CPE
PEDV [2] = experiment: Anti-PEDV activity assay, viral loads; format: cell-based; details: for concentration that completely inhibited PEDV replication: Vero E6 cells, PEDV 0.01 MOI, 48 h post infection, qRT-PCR and TCID50
PDCoV = details: ref Brown et al. [2019]; cited from earlier work
[3] = tested on: human cell lines and primary cells; details: cited from earlier work
PEDV spike protein = experiment: Indirect immuno-fluorescence assay; format: cell-based, porcine epidemic diarrhea virus, variant strain SDSX16; details: 0.2 μmol/L, 48 h, Vero E6 cells
[4] = Pharmacokinetics study of RDV-N in ICR mice; format: in vivo
[5] = Water solubility and lipophilicity; format: physicochemical
[6] = tested on: feline infectious peritonitis virus (FIPV); details: cats, subcutaneous, 5 mg/kg or 2 mg/kg; ref Murphy et al. [2018]; cited from earlier work
PEDV 3CL^pro = details: PEDV 3CLpro; ref Ye et al. [2020]; cited from earlier work

Molecule	maximal non-toxic concentration (MNTC) (Vero E6 cells)	concentration at which PEDV-induced CPE was obviously blocked (PEDV [1])	concentration that completely inhibited PEDV replication (PEDV [2])	EC50 (PDCoV)	CC50 [3]	fold more potent than NHC (EC50) (PEDV [2]; 72 h post infection, qRT-PCR)	fluorescence intensity (viral protein expression) (PEDV spike protein)	half-life ([4]; male, ICR, mouse, plasma, iv, 25 mg/kg)	half-life ([4]; male, ICR, mouse, plasma, po, 50 mg/kg)	Tmax ([4]; male, ICR, mouse, plasma, po, 50 mg/kg, Tmax, mice)	AUClast ([4]; mice, IV, 25 mg/kg)	AUClast ([4]; mice, PO, 50 mg/kg)	Cmax ([4]; mice, PO, 50 mg/kg)	lipophilicity [5]	water solubility [5]	cure rate [6]	IC50 (PEDV 3CL^pro)
CCC(CC)COC(=O)[C@H](C)N[P@](=O)(OC[C@H]1O[C@@](C#N)(c2ccc3c(N)ncnn23)[C@H](O)[C@@H]1O)Oc1ccccc1 [RDV, remdesivir]	125 µmol/L	0.5 µmol/L	7.8 µmol/L	20 nM	1.7 to 15 µM	–	–	–	–	–	–	–	–	–	–	–	–
N#C[C@@]1(c2ccc3c(N)ncnn23)O[C@H](CO)[C@@H](O)[C@H]1O [RDV-N]	125 µmol/L	0.2 µmol/L	2.0 µmol/L	–	–	3	significantly decreased	61.2 min	72 min	≤ 1 h	14,513 h × ng/mL	4556 ng·h/mL	1826 ng/mL	low lipophilicity	poor water solubility	100%	–
GC376	–	–	–	–	–	–	–	–	–	–	–	–	–	–	–	–	1110 nM

From PMC7983969 (Virologica Sinica, 2021)
